Experimental data taken from patent US5141959A, “Isoprenoid phospholipase A2 inhibitors and preparations comprising same” (Bristol-Myers Squibb Company, priority 1990, dated 1992).

Experiments:
[1] = test system: TPA-induced mouse ear edema; experiment: Phorbol ester (TPA)-induced mouse ear inflammation assay: edema (ear weight); format: in vivo, CD-1 mice; settings: topical, six hours
Method: (§1) Anti-inflammatory activity of the test compounds was determined in the phorbol ester-induced mouse ear inflammation model. [Young J M, Wagner B M and Spires D A, J Invest Dermatol, 80, 48-52 (1983)]. In this assay, an inflammatory reaction is induced by the topical application of 0.01% (w/v) tetradecanoylphorbol-13-acetate (TPA) to the ears of CD-1 mice. An acute inflammatory reaction results in which the ears swell and inflammatory cells infiltrate the ear tissue. TPA, with and without various concentrations of test compound, was applied to the inner and outer aspects of the ears (10 μl/surface). After six hours, the mice were sacrificed and the ears were removed. Ear tissue punches (5/16") were taken from each ear and weighed to measure edema. The ear punches were then processed for the determination of neutrophil accumulation by measurement of myeloperoxidase (MPO) activity by the method of Bradley et al. [Bradley P P et al, J Invest Dermatol, 78, 206-209 (1982)]. MPO is a specific marker for the presence of neutrophils in tissue.
(§2) The anti-inflammatory activity produced by the test compound is calculated by comparing the edema or MPO values obtained for the drug-treated ears to those obtained for non-drug treated ears. Percent inhibition values were determined by the equation: [formula] […] The ED50 is estimated to be 0.8%.

human platelet PLA2 = biological target: T1, human platelet PLA2 (Homo sapiens, UniProt P14555); experiment: PLA2 Inhibition Assay (14C-oleate labeled E. coli membrane substrate); format: biochemical; settings: preincubation 7 min, incubation 30 min, 37° C., pH 7; unit inferred; read-out: IC50 for inhibition of human platelet phospholipase A2
T1 construct: The enzyme was isolated from human platelets; from tissue; host or cells: human platelets
T1 sequence (P14555 21-144): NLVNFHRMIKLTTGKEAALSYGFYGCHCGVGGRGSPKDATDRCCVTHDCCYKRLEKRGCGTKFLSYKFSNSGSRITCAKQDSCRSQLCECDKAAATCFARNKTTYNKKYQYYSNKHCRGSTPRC
Method: This assay is used to measure the inhibition of human platelet PLA2 by test compounds. The method used was similar to that reported by Franson et al. [Jesse RL and Franson RC, Biochem Biophys Acta, 575, 467-470 (1979)]. [Franson RC, Patriarca P and Elsback P, J Lipid Res 15, 380-388 (1974)]. The enzyme was isolated from human platelets. The substrate used consisted of ^14 C-oleate labeled E. coli membranes. E. Coli cells were grown in the presence of ^14 C-oleic acid and then autoclaved to prepare membranes. In the assay, various concentrations of test compounds are preincubated with PLA2 (7.5 μg/ml) in a buffer consisting of 25 mM HEPES (pH 7) 150 mM NaCl, 5.0 mM Cacl2, and 10% DMSO (test compound solvent) at 37° C. for 7 minutes. The E. coli membrane substrate is then added (0.1 mM phospholipid, 0.5 μCi/umol) and the reaction is incubated at 37° C. for 30 minutes. The final reaction volume is 0.1 ml. The reaction is quenched with tetrahydrofuran (1.9 ml), and the entire solution is applied to a solid-phase extraction column (aminopropylresin, Analytichem). […] The amount of free fatty acid product is determined by liquid scintillation counting. The amount of inhibition produced by the test compound is calculated by comparing the number of counts obtained in the presence of the compound to that obtained for the control reactions (test compound solvent only). […]

[2] = test system: myeloperoxidase (MPO) activity; experiment: Phorbol ester (TPA)-induced mouse ear inflammation assay: cell infiltration (neutrophil accumulation by myeloperoxidase activity); format: in vivo, CD-1 mice; settings: topical, six hours
Method: as §1, §2

Row | SMILES | Blocking of TPA-induced mouse ear edema (in words) [1] | ED50, TPA-induced mouse ear edema ([1]; with TPA 0.01% (w/v)) | IC50 (human platelet PLA2) | Blocking of edema and cell infiltration (in words) ([2]; statement covers edema and cell infiltration) | ED50, inhibition of cell infiltration ([2]; with TPA 0.01% (w/v), MPO activity)
1 | CC1=C(/C=C/C(C)=C/C=C(/C(C)=C\C(=O)O)c2cccc(C(=O)O)c2)C(C)(C)CCC1 [Compound I, 13-CIS-12-(3'-CARBOXYPHENYL)RETINOIC ACID] | dose-dependently blocks TPA-induced mouse ear edema | ~0.8% | 40 µM | effectively blocks edema and cell infiltration | < 0.1%
2 | CC1=C(/C=C/C(C)=C/C=C/C(C)=C/C(=O)O)C(C)(C)CCC1 [reference compound] | – | – | > 500 µM | – | –
